Reference: patent publication US6858591B2, “Antibiotic AA 896 analogs” (Wyeth Holdings Corporation, priority 2001, dated 2005)
In brackets after ≈: the same amount, converted by molar mass. Like-named read-outs stand apart in the source and are kept apart here.

Columns and labels:
Test in all cases: In vitro MIC, broth dilution
Type in all cases: cell-based
[1] = system: E. coli GC 4559; conditions: Escherichia coli, GC4559
[2] = system: K. pneumoniae GC 4534; conditions: Klebsiella pneumoniae, GC4534
[3] = system: P. aeruginosa GC 4532; conditions: Pseudomonas aeruginosa, GC4532
[4] = system: E. coli GC 4560; conditions: Escherichia coli, GC4560
[5] = system: E. coli GC 3226; conditions: Escherichia coli, GC3226
[6] = system: S. marcescens GC 4077; conditions: Serratia marcescens, GC4077
[7] = system: C. albicans GC 3066; conditions: Candida albicans, GC3066
[8] = system: M. morganii GC 4531; conditions: Morganella morganii, GC4531
[9] = system: E. faecalis GC 2242; conditions: Enterococcus faecalis, GC2242
Outline: (§1)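 Organisms were inoculated at 5×10^5 CFU/ml into Mueller-Hinton II containing antibiotic at 64-0.06 μg/ml, then incubated 18 hours at 35° C in ambient air. The MIC was the lowest concentration that inhibited growth.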

[10] = system: S. aureus GC 1131; conditions: Staphylococcus aureus, GC1131
Outline: as §1

[11] = system: E. faecalis GC 4555; conditions: Enterococcus faecalis, GC4555
Outline: as §1

[12] = system: CNS GC 4538
Outline: as §1

[13] = system: S. aureus GC 2216; conditions: Staphylococcus aureus, GC2216
Outline: as §1

[14] = system: CNS GC 4547
Outline: as §1

[15] = system: E. faecalis GC 842; conditions: Enterococcus faecalis, GC842
Outline: as §1

[16] = system: S. aureus GC 4536; conditions: Staphylococcus aureus, GC4536
Outline: as §1

[17] = system: CNS GC 4537
Outline: as §1

[18] = system: E. coli GC 2203; conditions: Escherichia coli, GC2203
[19] = system: P. aeruginosa GC 2214; conditions: Pseudomonas aeruginosa, GC2214
[20] = system: E. cloacae GC 3783; conditions: Enterobacter cloacae, GC3783
[21] = K. pneumoniae GC 4534, read-out: MIC
[22] = P. aeruginosa GC 4532, read-out: MIC
[23] = S. marcescens GC 4077, read-out: MIC
[24] = C. albicans GC 3066, read-out: MIC
[25] = M. morganii GC 4531, read-out: MIC
[26] = E. faecalis GC 2242, read-out: MIC
[27] = S. aureus GC 1131, read-out: MIC
[28] = E. faecalis GC 4555, read-out: MIC
[29] = S. aureus GC 2216, read-out: MIC
[30] = E. faecalis GC 842, read-out: MIC
[31] = S. aureus GC 4536, read-out: MIC
[32] = P. aeruginosa GC 2214, read-out: MIC
[33] = E. cloacae GC 3783, read-out: MIC

Structure (SMILES)	MIC ([1]; E. coli GC 4559, read-out: MIC) [µg/mL]	MIC [2, 21] [µg/mL]	MIC [3, 22] [µg/mL]	MIC ([4]; E. coli GC 4560, read-out: MIC) [µg/mL]	MIC ([5]; E. coli GC 3226, read-out: MIC) [µg/mL]	MIC [6, 23] [µg/mL]	MIC [7, 24] [µg/mL]	MIC [8, 25] [µg/mL]	MIC [9, 26] [µg/mL]	MIC [10, 27] [µg/mL]	MIC [11, 28] [µg/mL]	MIC ([12]; CNS GC 4538, read-out: MIC) [µg/mL]	MIC [13, 29] [µg/mL]	MIC ([14]; CNS GC 4547, read-out: MIC) [µg/mL]	MIC [15, 30] [µg/mL]	MIC [16, 31] [µg/mL]	MIC ([17]; CNS GC 4537, read-out: MIC) [µg/mL]	MIC ([18]; E. coli GC 2203, read-out: MIC) [µg/mL]	MIC [19, 32] [µg/mL]	MIC [20, 33] [µg/mL]	also measured
COc1ccc(Cn2c(=O)ccn([C@@H]3OC([C@H](O)[C@H](NCCCNC(=O)[C@@H](N)Cc4ccccc4)C(=O)OC(C)(C)C)[C@@H](O[Si](C)(C)C(C)(C)C)[C@H]3O[Si](C)(C)C(C)(C)C)c2=O)cc1 (stereo partly drawn) [Example 13, tert-Butyl (2S,3R)-2-[(3-{[(2S)-2-amino-3-phenylpropanoyl]amino}propyl)amino]-3-[(3R,4R,5R)-3,4-bis{[tert-butyl(dimethyl)silyl]oxy}-5-(3-(4-methoxybenzyl)-2,4-dioxo-3,4-dihydro-1(2H)-pyrimidinyl)tetrahydro-2-furanyl]-3-hydroxypropanoate]	> 128	> 128	> 128	> 128	> 128	> 128	> 128	> 128	16 (≈ 17.3 µM)	> 128	> 128	> 128	> 128	> 128	128 (≈ 138 µM)	> 128	> 128	> 128	> 128	> 128	
COc1ccc(Cn2c(=O)ccn([C@@H]3OC([C@H](O)[C@H](NCCCNC(=O)[C@H](C)NC(=O)OCc4ccccc4)C(=O)OC(C)(C)C)[C@@H](O[Si](C)(C)C(C)(C)C)[C@H]3O[Si](C)(C)C(C)(C)C)c2=O)cc1 (stereo partly drawn) [Example 14, tert-Butyl (5S,12S)-12-[(R)-[(3R,4R,5R)-3,4-bis{[tert-butyl(dimethyl)silyl]oxy}-5-(3-(4-methoxybenzyl)-2,4-dioxo-3,4-dihydro-1(2H)-pyrimidinyl)tetrahydro-2-furanyl](hydroxy)methyl]-5-methyl-3,6-dioxo-1-phenyl-2-oxa-4,7,11-triazatridecan-13-oate]	> 128	> 128	128 (≈ 130 µM)	128 (≈ 130 µM)	> 128	> 128	128 (≈ 130 µM)	128 (≈ 130 µM)	128 (≈ 130 µM)	> 128	128 (≈ 130 µM)	> 128	> 128	128 (≈ 130 µM)	> 128	> 128	> 128	> 128	128 (≈ 130 µM)	> 128	
COc1ccc(Cn2c(=O)ccn([C@@H]3OC([C@H](O)[C@H](NCCCNC(=O)[C@H](C)N)C(=O)OC(C)(C)C)[C@@H](O[Si](C)(C)C(C)(C)C)[C@H]3O[Si](C)(C)C(C)(C)C)c2=O)cc1 (stereo partly drawn) [Example 15, tert-Butyl (2S,3R)-2-[(3-{[(2S)-2-aminopropanoyl]amino}propyl)amino]-3-[(3R,4R,5R)-3,4-bis{[tert-butyl(dimethyl)silyl]oxy}-5-(3-(4-methoxybenzyl)-2,4-dioxo-3,4-dihydro-1(2H)-pyrimidinyl)tetrahydro-2-furanyl]-3-hydroxypropanoate]	> 128	> 128	> 128	8 (≈ 9.41 µM)	> 128	> 128	64 (≈ 75.3 µM)	128 (≈ 151 µM)	4 (≈ 4.7 µM)	4 (≈ 4.7 µM)	4 (≈ 4.7 µM)	4 (≈ 4.7 µM)	4 (≈ 4.7 µM)	8 (≈ 9.41 µM)	4 (≈ 4.7 µM)	4 (≈ 4.7 µM)	4 (≈ 4.7 µM)	> 128	128 (≈ 151 µM)	> 128	
COc1ccc(Cn2c(=O)ccn([C@@H]3OC([C@H](O)[C@H](NCCCNC(=O)[C@H](CC(=O)OCc4ccccc4)NC(=O)OCc4ccccc4)C(=O)OC(C)(C)C)[C@@H](O[Si](C)(C)C(C)(C)C)[C@H]3O[Si](C)(C)C(C)(C)C)c2=O)cc1 (stereo partly drawn) [Example 16, tert-Butyl (5S,12S)-5-[2-(benzyloxy)-2-oxoethyl]-12-[(R)-[(3R,4R,5R)-3,4-bis{[tert-butyl(dimethyl)silyl]oxy}-5-(3-(4-methoxybenzyl)-2,4-dioxo-3,4-dihydro-1(2H)-pyrimidinyl)tetrahydro-2-furanyl](hydroxy)methyl]-3,6-dioxo-1-phenyl-2-oxa-4,7,11-triazatridecan-13-oate]																					MIC [1]: > 128 µg/mL; MIC [2]: > 128 µg/mL; MIC [3]: > 128 µg/mL; MIC [4]: > 128 µg/mL; MIC [5]: > 128 µg/mL; MIC [6]: > 128 µg/mL; MIC [7]: 128 µg/mL (≈ 114 µM); MIC [8]: > 128 µg/mL; MIC [9]: 128 µg/mL (≈ 114 µM); MIC [10]: > 128 µg/mL; MIC [11]: > 128 µg/mL; MIC [12]: > 128 µg/mL; MIC [13]: > 128 µg/mL; MIC [14]: > 128 µg/mL; MIC [15]: > 128 µg/mL; MIC [16]: > 128 µg/mL; MIC [17]: > 128 µg/mL; MIC [18]: > 128 µg/mL; MIC [19]: > 128 µg/mL; MIC [20]: > 128 µg/mL
COc1ccc(Cn2c(=O)ccn([C@@H]3OC([C@H](O)[C@H](NCCCNC(=O)[C@H](CCCCNC(=O)OCc4ccccc4)NC(=O)OCc4ccccc4)C(=O)OC(C)(C)C)[C@@H](O[Si](C)(C)C(C)(C)C)[C@H]3O[Si](C)(C)C(C)(C)C)c2=O)cc1 (stereo partly drawn) [Example 18, tert-Butyl (9S,16S)-9-{[(benzyloxy)carbonyl]amino}-16-[(R)-[(3R,4R,5R)-3,4-bis{[tert-butyl(dimethyl)silyl]oxy}-5-(3-(4-methoxybenzyl)-2,4-dioxo-3,4-dihydro-1(2H)-pyrimidinyl)tetrahydro-2-furanyl](hydroxy)methyl]-3,10-dioxo-1-phenyl-2-oxa-4,11,15-triazaheptadecan-17-oate]																					MIC [1]: > 128 µg/mL; MIC [2]: > 128 µg/mL; MIC [3]: > 128 µg/mL; MIC [4]: > 128 µg/mL; MIC [5]: > 128 µg/mL; MIC [6]: > 128 µg/mL; MIC [7]: > 128 µg/mL; MIC [8]: > 128 µg/mL; MIC [9]: 128 µg/mL (≈ 109 µM); MIC [10]: > 128 µg/mL; MIC [11]: > 128 µg/mL; MIC [12]: > 128 µg/mL; MIC [13]: > 128 µg/mL; MIC [14]: > 128 µg/mL; MIC [15]: > 128 µg/mL; MIC [16]: > 128 µg/mL; MIC [17]: > 128 µg/mL; MIC [18]: > 128 µg/mL; MIC [19]: > 128 µg/mL; MIC [20]: > 128 µg/mL
